In PMC9762759, “High-throughput discovery of novel small-molecule inhibitors of acid Ceramidase” (Journal of Enzyme Inhibition and Medicinal Chemistry, 2022):

What was measured:
[1] = biological target: T1, acid ceramidase in AC overexpressing A375 cells (Homo sapiens, UniProt Q13510); experiment: Fluorogenic ceramidase activity assay in intact cells (RBM14-C12); type: cell-based; settings: for inhibition at 20 µM: A-375, single-point concentration of 20 µM, 3 h, triplicate
T1 construct: expressed in transfected cells
T1 sequence (Q13510 22-395): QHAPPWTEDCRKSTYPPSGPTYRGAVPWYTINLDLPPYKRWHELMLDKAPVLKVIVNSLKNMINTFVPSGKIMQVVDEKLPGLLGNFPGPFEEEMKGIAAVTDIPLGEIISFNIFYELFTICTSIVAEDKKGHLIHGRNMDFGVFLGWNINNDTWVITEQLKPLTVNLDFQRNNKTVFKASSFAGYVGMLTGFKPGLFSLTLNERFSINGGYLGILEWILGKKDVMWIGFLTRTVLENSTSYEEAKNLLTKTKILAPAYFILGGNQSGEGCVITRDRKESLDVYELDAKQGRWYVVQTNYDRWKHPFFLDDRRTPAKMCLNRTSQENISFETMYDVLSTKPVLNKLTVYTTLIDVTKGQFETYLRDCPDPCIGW
Description: Cell-based assays allow evaluating biological activity in a more physiologically relevant system that also considers additional factors that might have a positive impact on inhibitory potency such as permeabilization through cellular membranes, metabolisation or concentration by intracellular compartmentalisation. Thus, the activity of the nine selected hits was next examined in intact cells using AC overexpressing A375 cells and the fluorogenic substrate RBM14-C12. First, compounds were tested in a primary screening assay. Measurements were performed in triplicated at a single-point concentration of 20 µM.
(§1) The A375 cell line stably overexpressing ASAH1 under the control of a tetracycline/doxycycline-responsive promoter was kindly provided by Dr. Carmen Bedia and Prof. Thierry Levade[17]. The antibiotic selection of this cell line was performed with blasticidin (3 µg/mL) and hygromycin B (250 µg/mL). Ectopic expression of AC was induced with doxycycline at 1 µg/mL for 24 h before use. Cells were suspended in the appropriate volume of a 0.25 M saccharose solution with the proteases inhibitors aprotinin (1 mg/mL), leupeptin (1 mg/mmL) and PMSF (100 mM). The suspension was submitted to three cycles of a 5 s sonication (probe) at 10 watts/5 s resting on ice. The cell lysate was centrifuged at 600 g for 5 min. The supernatant was collected and protein concentration was determined with BSA as a standard using the bicinchoninic acid (BCA) protein determination kit (Thermo Scientific) according to the manufacturer’s instructions.
To determine activity in intact cells, 2 × 10^4 cells/well were seeded in 96-well plates 24 h prior to the assay and maintained at 37 °C and 5% CO2. Overexpression of AC was induced with doxycycline at 1 µg/mL for 24 h. […] After incubation at 37 °C for 1 h in the dark, 100 µL/well of 100 mM glycine-NaOH buffer (pH 10.6) were added and fluorescence was measured spectrophotometrically at excitation and emission wavelengths of 355 and 460 nm, respectively. […]

[2] = biological target: T2, recombinant human NC (rhNC) (Homo sapiens, UniProt Q9NR71); experiment: Neutral ceramidase assay, fluorogenic substrate RBM14-C24:1; type: biochemical; settings: single-point concentration of 50 μM; means of three replicates
T2 construct: purchased R&D Systems
Description: As mentioned above, hydrolysis of ceramides occurs by the action of ceramidases which are encoded by five known genes and are distinguished by the pH required for optimal activity. A common problem with AC inhibitors, especially those one with a scaffold related to the structure of ceramide, is the lack of selectivity over other ceramidases. Thus, to discard a selectivity issue, the activity of nine detected hits against neutral ceramidase was next explored at 50 µM. Activity over NC was tested using recombinant human NC (rhNC) and a specific NC substrate bearing a nervonic acid amide (RBM14-C24:1)[30]. Remarkably, none of the molecules elicited a significant inhibitory activity, thereby confirming the selective inhibition of AC over NC (Supplemental Table 1).
The NC assay was performed in 96-well plates at a final volume of 100 µL/well. Reaction buffers was 25 mM phosphate buffer 150 mM NaCl 1% (NaChol) pH 7.4. The reaction mixtures contained 25 µL/well of protein (5 ng recombinant NC R&D Systems, >95% pure), 70 µL/well of substrate (prepared from 4 mM stock solutions in ethanol) and 5 µL/well of inhibitor (prepared from 1 mM stock solutions in DMSO/H2O). Reaction mixtures were incubated at 37 °C for 1 h and reactions were stopped with 25 µL/well of MeOH followed by 100 µL/well of NaIO4 (2.5 mg/mL in 100 mM glycine-NaOH buffer, pH 10.6). After incubation at 37 °C for 1 h in the dark, 100 µL/well of 100 mM glycine-NaOH buffer (pH 10.6) was added and fluorescence was measured spectrophotometrically at excitation and emission wavelenght of 355 and 460 nm, respectively. The same reaction mixtures without enzymes were used as blanks.

[3] = biological target: T3, acid ceramidase (AC) (Homo sapiens, UniProt Q13510); experiment: Acid ceramidase HTS assay, 384-well fluorogenic (RBM14-C12), cell lysates; type: biochemical; settings: for IC50: dose-titration, 8-point two-fold dilution from 200 micromolar, 95% confidence interval in brackets, means of three replicates; for inhibition at 20 µM: primary assay, single-point concentration of 20 μM, lysates of AC-overexpressing A375 melanoma cells, substrate RBM14-C12 20 µM, pH 4.5
T3 construct: expressed in transfected cells
T3 sequence (Q13510 22-395): T1 sequence (Q13510 22-395)
Description: To start with, the final reaction volume was adapted from 100 µL (96-well-format) to 32 µL (384 well-format) with a final concentration of substrate of 20 µM. Next, protein concentration was adjusted using cell lysates of AC-overexpressing A375 melanoma cells. Ideally, the optimal amount of protein is the one that ensures reaction linearity over a period of time together with less than 10% of substrate depletion, in order to assume that the enzyme operates at steady-state conditions. Thus, different amounts of cell lysates were mixed with the substrate and product formation was measured over 1 h. […] Finally, an amount of 0.4 µg of protein was chosen, as higher amounts of proteins were not in the linear portion whereas lower amounts would compromise the signal window. The optimal incubation time of the reaction mixture was next explored. […] As a first validation step, we performed a control run consisting of 60 wells representing AC activity and 60 wells representing the signal in absence of the enzyme. […] The calculated coefficients of variation (CV) for both the high and low controls were 6.08% and 17.1% respectively.
After having successfully established the optimal reaction conditions in a 384-well format, we employed this newly miniaturised AC assay in a pilot screen against a library of 4100 compounds. The screen was carried out at a single dose of 20 µM for each library compound in 6% DMSO (v/v) and in duplicate. The acid ceramidase inhibitor SOCLAC was used as a pharmacological control for the assay. The Z’-factor per plate were consistent with those obtained during the initial validation. […] An example hit map from one screening plate is shown (Figure 2(C)). The inhibitory activity of these hits was then validated in an additional assay performed at a single-point concentration in triplicates.
To confirm the results from the primary screening, top hits were cherry-picked and tested in a concentration-dependent response assay with triplicates per sample. Thus, 101 compounds were then subjected to 8-points two-fold dilution series starting at a maximum concentration of 200 micromolar.
as §1
A previously described 96-well plate assay[25] was miniaturised into a 384-well plate format with a final reaction volume of 32 µL. Plated compounds were diluted with a mixture of DMSO/H2O (1.6 µL/18 µL), and after centrifugation, 3.2 µL were dispensed into a new 384-well plate, so that the final concentration of the compound in the final reaction volume of 32 µL was 20 µM and the DMSO content of the assay was 1%. Next, 20.8 µL of a substrate solution of RBM14-C12 in sodium acetate buffer (25 mM, pH 4.5) was added for a final concentration of 20 µM, followed by the addition of 8 µL of a 0.25 M sucrose solution of cell lysates from AC-overexpressing A375 melanoma cells containing 0.4 µg of protein The reaction was terminated after 60 min incubation at 37 °C by adding 8 µL of methanol. Oxidation was performed by treatment with 32 µL of a [2.5 mg/mL] solution of NaIO4 in 100 mM glycine-NaOH buffer (pH 10.6). […]

T2 sequence (Q9NR71 whole entry): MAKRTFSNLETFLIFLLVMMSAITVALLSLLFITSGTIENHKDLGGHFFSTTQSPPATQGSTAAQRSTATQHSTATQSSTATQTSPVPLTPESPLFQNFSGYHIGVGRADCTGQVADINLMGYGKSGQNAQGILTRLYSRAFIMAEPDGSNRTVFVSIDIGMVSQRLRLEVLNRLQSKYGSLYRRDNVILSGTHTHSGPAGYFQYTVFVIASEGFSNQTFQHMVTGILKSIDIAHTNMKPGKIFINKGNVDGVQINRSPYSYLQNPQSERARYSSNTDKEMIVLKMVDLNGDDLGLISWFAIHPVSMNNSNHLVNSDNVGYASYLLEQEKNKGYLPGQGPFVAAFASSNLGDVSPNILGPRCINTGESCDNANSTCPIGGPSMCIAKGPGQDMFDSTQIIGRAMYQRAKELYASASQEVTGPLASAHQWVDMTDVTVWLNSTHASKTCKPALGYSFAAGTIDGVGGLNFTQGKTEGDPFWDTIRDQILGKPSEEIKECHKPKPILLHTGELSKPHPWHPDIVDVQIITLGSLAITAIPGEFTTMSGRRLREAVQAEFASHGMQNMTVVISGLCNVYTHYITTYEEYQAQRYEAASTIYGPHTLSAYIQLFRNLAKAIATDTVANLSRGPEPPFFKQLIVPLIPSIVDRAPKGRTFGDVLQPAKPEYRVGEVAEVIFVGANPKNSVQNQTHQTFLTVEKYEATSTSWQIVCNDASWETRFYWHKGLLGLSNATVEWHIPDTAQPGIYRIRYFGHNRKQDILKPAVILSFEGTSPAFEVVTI

Row | inhibition at 20 µM [1] [%] | inhibition at 50 µM [2] [%] | IC50 [3] [µM] | inhibition at 20 µM [3] [%] | IC50 ([1]; interval (24.3–44.7) printed, read-out: IC50 in the cell-based assay) [µM] | Structure (SMILES)
1 | 32 | -8.9 | 11.1 | 61.4 | – | Cc1cc(O[C@H](c2ccc(C(=O)NC[C@H](O)C(=O)O)s2)C(C)C)cc(C)c1-c1ccc(C(F)(F)F)cc1 [W000113414_H19]
2 | – | 23.4 | 10.6 | 63.4 | – | C=CCNC(=S)Nc1ccc(Cl)c([N+](=O)[O-])c1 [W000113403_I18]
3 | – | 8.5 | 7.9 | 53.8 | – | CC1CCCCN1C(=O)Nc1ccc(Oc2ccccc2)cc1 (centres unmarked) [W000113402_O07]
4 | 53 | -5.9 | 10.6 | 75.5 | 32 | CN(CCc1ccccn1)S(=O)(=O)c1cccc(Br)c1 [W000113402_C12]
5 | – | -1.3 | 36.7 | 60.4 | – | CCCCc1ccc(C(=O)CCC2C(=O)c3ccccc3C2=O)cc1 [W000113414_D15]
6 | – | 20.8 | 23.9 | 59.2 | – | Cc1ccc(CN2CC(C(=O)N(C)Cc3ccc(Cl)c(Cl)c3)CC2=O)cc1 (centres unmarked) [W000113407_J11]
7 | – | -4.1 | 48.9 | 59 | – | CC(C)(C)CC(=O)N1CCN(c2cccc(C(F)(F)F)c2)CC1 [W000113414_C16]
8 | – | 35.6 | 15.8 | 41.7 | – | CC(OC(=O)c1c2c(nc3ccccc13)/C(=C/c1cccs1)CC(C(C)(C)C)C2)C(=O)Nc1ccc(C(N)=O)cc1 (centres unmarked) [W000113400_H06]
9 | – | 22.9 | – | 67.4 | – | CCC(CC)(c1ccc(OCC2(C(C)(C)C)OCCO2)c(C)c1)c1cc(C)c2oc(C(=O)NCC(=O)O)cc2c1 [W000113414_I13]
